Our source for the Emax values is US8664221B2 (Santen Pharmaceutical Co., Ltd., priority 2008, dated 2014).

The experiment has as its system IL-6 production induced by lipopolysaccharide (LPS) in human corneal epithelial cells (HCE-T). In words: Inhibition of LPS-induced IL-6 production in human corneal epithelial cells (GR agonist activity). Type of experiment: cell-based. Particulars: Corneal epithelial cell, 10 μL of 100 μM test compound solution per well, 4 hours incubation, efficacy relative to DEX. As to the method:
In order to evaluate a GR agonist activity of the present compound, the inhibitory effects on the IL-6 production induced by lipopolysaccharide (LPS) in human corneal epithelial cells. IL-6 levels in the conditioned medium were measured using the HTRF human IL-6 Kit (boehringer-Ingelheim, Cat No. 62IL6PEB), and the procedure was carried out according to the protocol attached to the kit. Hereinafter, the specific method will be described.
LPS solution: After LPS was dissolved in phosphate buffer solution (hereinafter referred to as PBS(−)), the resulting solution was diluted with 10% FBS-DMEM/F12 medium, whereby a 1 μg/mL LPS solution was prepared.
After a test compound was dissolved in dimethylsulfoxide (hereinafter referred to as DMSO), the resulting solution was diluted with 10% FBS-DMEM/F12 medium, whereby a 100 μM test compound solution was prepared. A 100 μM DEX solution was prepared by the same method, and the inhibitory ratio of IL-6 production of DEX was evaluated to use for calculating efficacy (% DEX).
Used cell: SV40-immortalized human corneal epithelial cells (HCE-T) (RIKEN)
1) HCE-T cells were harvested, and seeded at 2.0×10^4 cells/0.1 mL/well in a 96-well plate.
2) After incubation overnight, the medium was removed and a 80 μL of new 10% FBS-DMEM/Ham's F12 medium was added into each well.
3) A 10 μL of test compounds solution was added into each well.
4) A 10 μL of LPS solution was added into each well.
5) As a negative control, a 10 μL of 10% FBS-DMEM/Ham's F12 medium was added into each well instead of a test compound solution and a LPS solution.
6) As a positive control, a 10 μL of 10% FBS-DMEM/Ham's F12 medium containing 1% DMSO was added into each well instead of a test compound solution.
7) After 4 hours incubation, supernatants were collected and IL-6 levels in the supernatants were quantitated using the HTRF human IL-6 Kit.
8) The inhibition ratio of IL-6 production (%) was calculated according to the following equation.
The inhibition ratio of IL-6 production (%) was calculated according to the following equation. The inhibition ratio of IL-6 production (%)=100×{1−(IL-6 level in each group−mean value of IL-6 level in negative control)/(mean value of IL-6 level in positive control−mean value of IL-6 level in negative control)} (%)
Furthermore, the inhibition ratio of IL-6 production (efficacy (% DEX)) was also calculated according to the following equation. Efficacy(% DEX)=100×{(mean value of IL-6 inhibition in compound-treated group)/(mean value of IL-6 inhibition in DEX-treated group)} (%) (Results and Discussion)

What is called Emax is the greatest response seen or fitted, relative to the assay's reference.

`COc1cc(OS(C)(=O)=O)ccc1-c1ccc2c(c1COC(=O)c1ccc(C)s1)N(C)C(=O)C(C)(C)N2` [Compound No. 1-3, 7-(2-Methoxy-4-methylsulfonyloxyphenyl)-8-(5-methylthiophen-2-ylcarbonyloxymethyl)-1,3,3-trimethyl-3,4-dihydro-1H-quinoxalin-2-one] came in with an Emax of 70%.
To `COc1cc(OS(=O)(=O)Cc2ccccc2Cl)ccc1-c1ccc2c(c1COc1cc(F)ccc1C)N(C)C(=O)C(C)(C)N2` [Compound No. 1-14, 7-[4-(2-Chlorobenzylsulfonyloxy)-2-methoxyphenyl]-8-(5-fluoro-2-methylphenoxymethyl)-1,3,3-trimethyl-3,4-dihydro-1H-quinoxalin-2-one] belongs 86%; to `COc1cc(OS(=O)(=O)Cc2ccccc2C)ccc1-c1ccc2c(c1COc1cc(F)ccc1C)N(C)C(=O)C(C)(C)N2` [Compound No. 1-15, 8-(5-Fluoro-2-methylphenoxymethyl)-7-[2-methoxy-4-(2-methylbenzyl-sulfonyloxy)phenyl]-1,3,3-trimethyl-3,4-dihydro-IH-quinoxalin-2-one], 88%; to `COc1cc(OS(=O)(=O)C2CCCCC2)ccc1-c1ccc2c(c1COc1cc(F)ccc1C)N(C)C(=O)C(C)(C)N2` [Compound No. 1-17, 7-(4-Cyclohexylsulfonyloxy-2-methoxyphenyl)-8-(5-fluoro-2-methylphenoxymethyl)-1,3,3-trimethyl-3,4-dihydro-1H-quinoxalin-2-one], 83%.
To `COc1cc(OS(=O)(=O)C2CC2)ccc1-c1ccc2c(c1COC(=O)c1ccc(C)s1)N(C)C(=O)C(C)(C)N2` [Compound No. 1-19, 7-(4-Cyclopropylsulfonyloxy-2-methoxyphenyl)-8-(5-methyl-thiophen-2-ylcarbonyloxymethyl)-1,3,3-trimethyl-3,4-dihydro-1H-quinoxalin-2-one] belongs 88%; to `COc1cc(OS(=O)(=O)CCC(F)(F)F)ccc1-c1ccc2c(c1COC(=O)c1ccc(C)s1)N(C)C(=O)C(C)(C)N2` [Compound No. 1-20, 7-[2-Methoxy-4-(3,3,3-trifluoropropylsulfonyloxy)phenyl]-8-(5-methylthiophen-2-ylcarbonyloxymethyl)-1,3,3-trimethyl-3,4-dihydro-1H-quinoxalin-2-one], 74%; to `COc1cc(OS(=O)(=O)CC(C)C)ccc1-c1ccc2c(c1COC(=O)c1ccc(C)s1)N(C)C(=O)C(C)(C)N2` [Compound No. 1-21, 7-(4-Isobutylsulfonyloxy-2-methoxyphenyl)-8-(5-methylthiophen-2-ylcarbonyloxymethyl)-1,3,3-trimethyl-3,4-dihydro-1H-quinoxalin-2-one], 71%.
The result for `COc1cc(OS(=O)(=O)C2CCCC2)ccc1-c1ccc2c(c1COC(=O)c1ccc(C)s1)N(C)C(=O)C(C)(C)N2` [Compound No. 1-24, 7-(4-Cyclopentylsulfonyloxy-2-methoxyphenyl)-8-(5-methylthiophen-2-ylcarbonyloxymethyl)-1,3,3-trimethyl-3,4-dihydro-1H-quinoxalin-2-one] reads 85%; that for `COc1ccc([N+](=O)[O-])cc1OCc1c(-c2ccc(OS(=O)(=O)C3CC3)cc2OC)ccc2c1N(C)C(=O)C(C)(C)N2` [Compound No. 1-30, 7-(4-Cyclopropylsulfonyloxy-2-methoxyphenyl)-8-(2-methoxy-5-nitrophenoxymethyl)-1,3,3-trimethyl-3,4-dihydro-1H-quinoxalin-2-one], 74%.
With `CCCS(=O)(=O)Oc1ccc(-c2ccc3c(c2COc2cc([N+](=O)[O-])ccc2OC)N(C)C(=O)C(C)(C)N3)c(OC)c1` [Compound No. 1-31, 8-(2-Methoxy-5-nitrophenoxymethyl)-7-(2-methoxy-4-propyl-sulfonyloxyphenyl)-1,3,3-trimethyl-3,4-dihydro-1H-quinoxalin-2-one], the Emax amounted to 76%.
To `COc1cc(OS(=O)(=O)C(C)C)ccc1-c1ccc2c(c1COc1cc([N+](=O)[O-])ccc1C)N(C)C(=O)C(C)(C)N2` [Compound No. 1-35, 7-(4-Isopropylsulfonyloxy-2-methoxyphenyl)-8-(2-methyl-5-nitro-phenoxymethyl)-1,3,3-trimethyl-3,4-dihydro-1H-quinoxalin-2-one] belongs 79%; to `COc1cc(OS(C)(=O)=O)ccc1-c1ccc2c(c1COc1cc([N+](=O)[O-])ccc1C)N(C)C(=O)C(C)(C)N2` [Compound No. 1-36, 7-(2-Methoxy-4-methylsulfonyloxyphenyl)-8-(2-methyl-5-nitro-phenoxymethyl)-1,3,3-trimethyl-3,4-dihydro-1H-quinoxalin-2-one], 72%; to `COc1cc(OS(=O)(=O)C2CCCC2)ccc1-c1ccc2c(c1COc1cc([N+](=O)[O-])ccc1C)N(C)C(=O)C(C)(C)N2` [Compound No. 1-37, 7-(4-Cyclopentylsulfonyloxy-2-methoxyphenyl)-8-(2-methyl-5-nitrophenoxymethyl)-1,3,3-trimethyl-3,4-dihydro-1H-quinoxalin-2-one], 74%.
To `CCCS(=O)(=O)Oc1ccc(-c2ccc3c(c2COC(=O)c2ccc(C)cc2)N(C)C(=O)C(C)(C)N3)c(OC)c1` [Compound No. 1-39, 7-(2-Methoxy-4-propylsulfonyloxyphenyl)-8-(4-methylbenzoyloxy-methyl)-1,3,3-trimethyl-3,4-dihydro-1H-quinoxalin-2-one] belongs 80%; to `COc1cc(OS(=O)(=O)CCCCl)ccc1-c1ccc2c(c1COc1cc(F)ccc1C)N(C)C(=O)C(C)(C)N2` [Compound No. 1-40, 7-[4-(3-Chloropropylsulfonyloxy)-2-methoxyphenyl]-8-(5-fluoro-2-methylphenoxymethyl)-1,3,3-trimethyl-3,4-dihydro-1H-quinoxalin-2-one], 84%.
To `COc1cc(OS(=O)(=O)CCl)ccc1-c1ccc2c(c1COc1cc(F)ccc1C)N(C)C(=O)C(C)(C)N2` [Compound No. 1-41, 7-(4-Chloromethylsulfonyloxy-2-methoxyphenyl)-8-(5-fluoro-2-methylphenoxymethyl)-1,3,3-trimethyl-3,4-dihydro-1H-quinoxalin-2-one] belongs 85%; to `COc1cc(OS(=O)(=O)CCCNCc2ccccc2)ccc1-c1ccc2c(c1COc1cc(F)ccc1C)N(C)C(=O)C(C)(C)N2` [Compound No. 3-1, 7-[4-(3-Benzylaminopropylsulfonyloxy)-2-methoxyphenyl]-8-(5-fluoro-2-methylphenoxymethyl)-1,3,3-trimethyl-3,4-dihydro-1H-quinoxalin-2-one], 78%; to `CCCNCCCS(=O)(=O)Oc1ccc(-c2ccc3c(c2COc2cc(F)ccc2C)N(C)C(=O)C(C)(C)N3)c(OC)c1` [Compound No. 3-2, 8-(5-Fluoro-2-methylphenoxymethyl)-7-[2-methoxy-4-(3-propylaminopropyl-sulfonyloxy)phenyl]-1,3,3-trimethyl-3,4-dihydro-1H-quinoxalin-2-one], 70%.
The molecule `COc1cc(OS(=O)(=O)CCCN2CCOCC2)ccc1-c1ccc2c(c1COc1cc(F)ccc1C)N(C)C(=O)C(C)(C)N2` [Compound No. 3-3, 8-(5-Fluoro-2-methylphenoxymethyl)-7-[2-methoxy-4-[3-(morpholin-4-yl)propylsulfonyloxy]phenyl]-1,3,3-trimethyl-3,4-dihydro-1H-quinoxalin-2-one] had an Emax of 85%.
